# Data: BindingDB's records for doi:10.1021/np100503q (The Ohio State University, 2010)
# Target: Transcription factor p65 (Human, UniProt Q04206)
# Test: Inhibition of NF-kappaB p65 isolated from nuclear extract of human HeLa cells assessed as blockade of binding to biotinylated consesus sequence by chemiluminescence assay
# Sequence of Transcription factor p65 (Q04206 whole entry): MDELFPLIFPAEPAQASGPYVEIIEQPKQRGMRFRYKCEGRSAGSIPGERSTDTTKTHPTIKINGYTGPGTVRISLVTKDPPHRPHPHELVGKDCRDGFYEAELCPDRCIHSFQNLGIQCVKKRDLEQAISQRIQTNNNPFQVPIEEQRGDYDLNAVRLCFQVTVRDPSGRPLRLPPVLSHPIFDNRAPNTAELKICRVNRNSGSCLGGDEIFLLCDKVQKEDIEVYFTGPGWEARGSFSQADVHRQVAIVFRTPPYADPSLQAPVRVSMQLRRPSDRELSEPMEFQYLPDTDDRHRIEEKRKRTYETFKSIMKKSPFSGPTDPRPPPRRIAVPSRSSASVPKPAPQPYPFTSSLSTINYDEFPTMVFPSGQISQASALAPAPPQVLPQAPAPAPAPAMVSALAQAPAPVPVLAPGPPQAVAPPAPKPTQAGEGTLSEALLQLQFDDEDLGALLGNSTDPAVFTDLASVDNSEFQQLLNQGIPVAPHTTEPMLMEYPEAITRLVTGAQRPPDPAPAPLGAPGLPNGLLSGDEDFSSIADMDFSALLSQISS
compound,measurement,value
COC(=O)[C@H]1[C@@H](O)[C@@]2(O)c3c(OC)cc(O[C@@H]4O[C@@H]([C@H](O)CO)CO[C@@H]4OC)cc3O[C@@]2(c2ccc(OC)cc2)[C@@H]1c1ccccc1 [5'''-episilvestrol],IC50,> 20 µM
